Assay: Aerodynamic particle size distribution by Andersen Cascade Impactor (ACI)
Type: physicochemical
Conditions: flow rate 28.3 L/min, Samples I-V
Description: An Andersen Cascade Impactor (ACI) was used to determine the particle size distribution of Samples I-V. The test was conducted at a flow rate of 28.3 L/min. Deposition of the active substance on each ACI plate was determined by high performance liquid chromatography. The particle size was expressed in terms of mass median aerodynamic diameter (MMAD) and Geometric Standard Deviation (GSD).

CC(C)(C)NC[C@H](O)c1ccc(O)c(CO)c1.O=C(O)C(O)C(O)C(=O)O [Levalbuterol Tartrate, 4-[(1R)-2-(tert-butylamino)-1-hydroxyethyl]-2-(hydroxymethyl)phenol; (2R,3R)-2,3-dihydroxybutanedioic acid]
GSD: 1.7
MMAD: 4.4 μm

Source: patent publication US20210290568A1, “INHALABLE FORMULATION OF A SOLUTION CONTAINING LEVALBUTEROL TARTRATE” (priority 2020, published 2021)
